According to the NIST ThermoML archive (doi:10.1016/j.jct.2016.09.005):

Settings: 5500 kPa, Brillouin Light Scattering

CCCCCC [hexane]
speed of sound [m/s]
Settings	300.09 K	353.12 K	403.17 K	453.15 K	503.13 K	547.89 K	578.22 K	608.05 K	636.04 K
Fluid (supercritical or subcritical phases)	–	–	–	–	–	158.25	154.04	178.03	194.98
Liquid	1111.2	898.5	705.9	513	323.7	–	–	–	–
